From ChEMBL document CHEMBL5149982, “Development of Potent NEDD8-Activating Enzyme Inhibitors Bearing a Pyrimidotriazole Scaffold” (J Med Chem, 2021) come the findings set out here.

A short description of series [1]: AUClast in Sprague-Dawley rat at 1 mg/kg, iv. Format: ADME, organism-based. The following applies: in vivo. Also noted: time 0 - last, dose 1 mg/kg, route iv.
Series [2] has as its target T1, Serine/threonine-protein kinase TAO1 (Homo sapiens) (UniProt Q7L7X3).
T1 sequence (whole entry): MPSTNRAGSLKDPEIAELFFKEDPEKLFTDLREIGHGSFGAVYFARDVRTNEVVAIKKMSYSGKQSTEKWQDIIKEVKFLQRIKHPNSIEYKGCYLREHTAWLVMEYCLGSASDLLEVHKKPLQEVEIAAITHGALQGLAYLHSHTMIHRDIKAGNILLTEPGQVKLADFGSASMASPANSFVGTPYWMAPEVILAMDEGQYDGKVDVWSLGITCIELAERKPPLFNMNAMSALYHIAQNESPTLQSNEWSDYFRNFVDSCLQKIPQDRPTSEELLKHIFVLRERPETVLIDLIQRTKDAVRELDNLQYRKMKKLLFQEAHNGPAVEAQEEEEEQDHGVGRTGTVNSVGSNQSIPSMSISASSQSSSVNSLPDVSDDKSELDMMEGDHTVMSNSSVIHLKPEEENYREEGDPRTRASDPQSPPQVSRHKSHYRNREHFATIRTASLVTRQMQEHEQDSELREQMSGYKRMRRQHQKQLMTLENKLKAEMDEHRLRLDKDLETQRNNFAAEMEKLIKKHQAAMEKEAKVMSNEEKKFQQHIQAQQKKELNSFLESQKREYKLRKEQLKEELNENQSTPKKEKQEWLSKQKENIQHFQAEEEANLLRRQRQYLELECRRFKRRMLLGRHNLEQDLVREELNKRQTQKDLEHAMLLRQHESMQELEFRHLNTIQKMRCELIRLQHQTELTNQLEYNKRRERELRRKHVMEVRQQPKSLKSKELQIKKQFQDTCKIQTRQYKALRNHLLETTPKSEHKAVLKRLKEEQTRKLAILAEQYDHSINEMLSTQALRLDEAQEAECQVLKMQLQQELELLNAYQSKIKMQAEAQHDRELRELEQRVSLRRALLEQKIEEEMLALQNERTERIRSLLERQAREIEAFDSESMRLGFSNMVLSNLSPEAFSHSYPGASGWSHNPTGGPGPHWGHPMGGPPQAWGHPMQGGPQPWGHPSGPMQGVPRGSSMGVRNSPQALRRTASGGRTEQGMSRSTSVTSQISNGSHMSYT
As to the kind of experiment: Inhibition of human partial length wild type TAOK1 by measuring selectivity score at 1 uM by Kinomescan method relative to control.

The next series relates to HT-29. Briefly: Antiproliferative activity against human HT-29 cells assessed as cell growth inhibition measured after 72 hrs by SRB assay. The following applies: HT-29, 72 h. The class given is functional, cell-based.
In another series the test system is THP-1. As to the kind of experiment: Antiproliferative activity against human THP-1 cells assessed as cell growth inhibition measured after 72 hrs by SRB assay. The class given is functional, cell-based. The following applies: THP-1, 72 h.
The test system of the next series is DU-145. Briefly: Antiproliferative activity against human DU-145 cells assessed as cell growth inhibition measured after 72 hrs by SRB assay. The class given is functional, cell-based. The following applies: DU-145, 72 h. On the technique in general: The SRB assay estimates cell density from bound dye.
Series [3] can be described thus: Inhibition of UAE (unknown origin) […] assessed as decrease in UbcH10-Ub adduct formation incubated for 2 hrs in presence of L-glutathione and ATP by HTRF assay. The arrangement: species or system Homo sapiens.
For another series, the system named is MV4-11. As to the kind of experiment: Antiproliferative activity against human MV4-11 cells assessed as cell growth inhibition measured after 72 hrs by SRB assay. Format: functional, cell-based. The following applies: MV4-11, 72 h.
The subject of a further series is LNCaP-Clone-FGC. Briefly: Antiproliferative activity against human LNCaP-Clone-FGC cells assessed as cell growth inhibition measured after 72 hrs by SRB assay. Format: functional, cell-based.
A further series has as its system HuTu80. Briefly: Antiproliferative activity against human HuTu80 cells assessed as cell growth inhibition measured after 72 hrs by SRB assay. The following applies: HuTu80, 72 h. The class given is functional, cell-based.
The subject of series [4] is HCT-116. Briefly: Antiproliferative activity against human HCT-116 cells assessed as cell growth inhibition by sulforhodamine B assay. The class given is functional, cell-based.
In series [5] the target is Voltage-gated inwardly rectifying potassium channel KCNH2 (Homo sapiens, UniProt Q12809). As to the kind of experiment: Inhibition of hERG channel. Format: toxicity. Background: hERG is a cardiac potassium channel; its block is linked to QT prolongation.
Series [6] in a line: Volume of distribution at steady state in Sprague-Dawley rat at 1 mg/kg, iv. The class given is ADME, organism-based. The following applies: in vivo, read-out: Vdss.
Series [7] in a line: Clearance in Sprague-Dawley rat at 1 mg/kg, iv. Format: ADME, organism-based. The following applies: in vivo.
Series [8] is described as follows: Toxicity in nude mouse xenografted with human HCT-116 cells assessed as effect on body weight at 60 mg/kg, sc bid administered at 5 on/5 off/8 for 18 days. Format: organism-based. The following applies: in vivo, 432 h, time 18 day. (Xenograft models place foreign cells or tissue in a host animal.)
Series [9] is described as follows: Observed AUCinfinity in Sprague-Dawley rat at 1 mg/kg, iv. The class given is ADME, organism-based. The arrangement: time infinity, dose 1 mg/kg, route iv. The following applies: in vivo.
Series [10] in a line: Half life in Sprague-Dawley rat at 1 mg/kg, iv. The class given is ADME, organism-based. The following applies: in vivo.
A further series relates to RKO. As to the kind of experiment: Antiproliferative activity against human RKO cells assessed as cell growth inhibition measured after 72 hrs by SRB assay. Format: functional, cell-based.
The test system of the next series is Jurkat. As to the kind of experiment: Antiproliferative activity against human Jurkat cells assessed as cell growth inhibition measured after 72 hrs by SRB assay. The class given is functional, cell-based.
Series [11] has as its target T1, Serine/threonine-protein kinase TAO1 (Homo sapiens). As to the kind of experiment: Inhibition of human partial length wild type TAOK1 at 1 uM by Kinomescan method relative to control.
The nature of series [12]: Observed MRTinfinity in Sprague-Dawley rat at 1 mg/kg, iv. The class given is ADME, organism-based. The following applies: in vivo.
The subject of series [13] is HCT-116. Briefly: Antitumor activity against human HCT-116 cells xenografted in nude mouse assessed as reduction in tumor growth at 60 mg/kg, sc bid administered at 5 on/5 off/8 for 18 days. The class given is functional. The following applies: time 18 day.
A further series deals with CAPAN-1. Briefly: Antiproliferative activity against human CAPAN-1 cells assessed as cell growth inhibition measured after 72 hrs by SRB assay. Format: functional, cell-based. The following applies: CAPAN-1, 72 h.
In series [14] the test system is HCT-116. Briefly: Antiproliferative activity against human HCT-116 cells assessed as cell growth inhibition measured after 72 hrs by SRB assay. Format: functional, cell-based. The following applies: HCT-116, 72 h.

Structures are written as SMILES. Where only a bound is given, the exact number is not on record here.

Chain of Voltage-gated inwardly rectifying potassium channel KCNH2 (Q12809 whole entry): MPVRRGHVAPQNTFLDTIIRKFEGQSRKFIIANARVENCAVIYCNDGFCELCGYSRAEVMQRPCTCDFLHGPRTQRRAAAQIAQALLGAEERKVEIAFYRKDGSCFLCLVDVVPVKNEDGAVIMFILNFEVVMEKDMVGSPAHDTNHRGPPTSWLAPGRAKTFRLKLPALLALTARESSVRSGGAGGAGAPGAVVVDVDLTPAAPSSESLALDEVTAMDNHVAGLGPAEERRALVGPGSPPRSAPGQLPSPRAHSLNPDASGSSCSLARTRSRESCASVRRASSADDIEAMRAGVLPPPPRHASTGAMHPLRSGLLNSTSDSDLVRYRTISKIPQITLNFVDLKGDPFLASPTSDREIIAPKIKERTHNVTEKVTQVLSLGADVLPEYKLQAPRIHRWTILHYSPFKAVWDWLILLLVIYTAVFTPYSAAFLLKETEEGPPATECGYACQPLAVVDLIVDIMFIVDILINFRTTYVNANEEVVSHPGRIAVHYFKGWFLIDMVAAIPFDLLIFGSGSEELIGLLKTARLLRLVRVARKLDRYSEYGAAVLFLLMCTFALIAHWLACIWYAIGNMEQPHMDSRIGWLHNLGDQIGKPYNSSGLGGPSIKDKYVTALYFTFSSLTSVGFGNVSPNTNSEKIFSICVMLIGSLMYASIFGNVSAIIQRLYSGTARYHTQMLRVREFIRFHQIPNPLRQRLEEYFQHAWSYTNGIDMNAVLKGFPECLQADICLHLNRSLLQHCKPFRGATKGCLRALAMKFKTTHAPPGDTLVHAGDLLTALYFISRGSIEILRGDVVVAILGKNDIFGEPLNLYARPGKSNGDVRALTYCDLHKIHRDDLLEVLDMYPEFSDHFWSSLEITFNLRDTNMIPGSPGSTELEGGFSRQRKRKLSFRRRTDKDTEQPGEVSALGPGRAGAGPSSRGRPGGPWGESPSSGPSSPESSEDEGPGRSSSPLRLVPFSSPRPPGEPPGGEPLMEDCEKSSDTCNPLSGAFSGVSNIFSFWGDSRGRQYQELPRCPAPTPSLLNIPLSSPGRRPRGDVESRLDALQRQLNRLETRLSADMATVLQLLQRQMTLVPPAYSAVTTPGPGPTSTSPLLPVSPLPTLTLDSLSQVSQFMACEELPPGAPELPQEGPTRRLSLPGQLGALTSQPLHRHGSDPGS

As for `NS(=O)(=O)OC[C@@H]1C[C@@H](n2ccc3c(N[C@H]4CCc5ccccc54)ncnc32)C[C@@H]1O` [PEVONEDISTAT], the AUC(0-t) in series [1] was 1330 ng·h/mL. Further, the Activity in [2] was 0.002; in series [8], “Non-Toxic”. The IC50 in the series with HT-29 worked out at 484 nM; in the series with THP-1, 115 nM; in the series on DU-145, 201 nM; in series [3], 3.72 nM; with MV4-11, 107 nM; with LNCaP-Clone-FGC, 64.6 nM. In addition, the IC50 is 42.6 nM with HuTu80; 33.9 nM in the series on HCT-116 [4]; more than 40000 nM in [5]; 166 nM with RKO; 152 nM in the series with Jurkat; 101 nM in the series on CAPAN-1. Further, the IC50 with HCT-116 [14] was found to be 36.2 nM. For the same compound, in [6], the Vd turned out to be 1.63 L/kg. The same compound displayed a clearance in series [7] of 16.5 mL/min/kg. Further, the AUC(0-inf) in series [9] was 1340 ng·h/mL. The same compound had a half-life in [10] of 1.36 h. Moreover, the inhibition in [11] worked out at 35%. The compound also had an MRT inf in [12] of 1.9 h. For the same compound, in the series with HCT-116 [13], the T/C came out at 0.1.

As usually defined, the AUC(0-t) is exposure summed from dosing to a finite time, without extrapolation to infinity. A low value points to less exposure. Broadly, the IC50 is the concentration that gives 50% inhibition. Usually clearance stands for the rate of elimination divided by the concentration. A high value points to efficient removal. As usually defined, the AUC(0-inf) is the area under the concentration-time curve extrapolated to infinity. A lower AUC(0-inf) goes with less exposure. The term half-life denotes the time in which the quantity being followed falls by half. One may read the inhibition as how much of the control response was suppressed. Read a high inhibition as a strong effect. What is called MRT inf is a mean duration of stay, worked out from the concentration-time curve.
